# Experimental data from patent US4229471A, “N-(2-Ethylhexyl)-crotonamides” (The Lion Dentifrice Co., Ltd., priority 1978, dated 1980).
# How the values were obtained:
# [1] = tested on: cancerous cells; experiment: Carcinostatic activity (overall statement)
# [2] = tested on: DNA synthesis in cancerized mast cells (Mastocytoma P-815); experiment: 3H-TdR incorporation into DNA of cancerized mast cells; type: cell-based, mouse; conditions: for inhibition at 100 µg/mL / inhibition at 500 µg/mL: Mus musculus, P815, 1.25 h, read-out: DNA synthesis inhibition ratio
# Experimental: Effects of drugs on ^3 H-TdR (tritium labelled thymidine) incorporation into DNA of cancerized mast cells were examined.
# Cancerized mast cells (Mastocytoma P-815), 4.25×10^6 cells, were incubated for 15 minutes with or without each of drugs, A: (N-(2-ethylhexyl)-crotonamide), B: (N-(2-ethylhexyl)-β-methylcrotonamide) and C: (N-(2-ethylhexyl)-β-hydroxybutyramide) (each 100 μg and 500 μg) in 1 cc of Fischer culture medium. Thereafter, 0.1 μCi of ^3 H-TdR was added and incubation was proceeded for an additional 60 minutes. The cells were washed with PBS and the DNA was precipitated with 5% (W/V) trichloroacetic acid. Precipitates were counted in a liquid Scintillation Spectrometer.
# *Inhibition ratio was calculated in terms of the following equation: […]
# c : amount of ^3 H--TdR incorporated in the control group (cpm)
# s : amount of ^3 H--TdR incorporated in the treated group (cpm)
# [3] = tested on: Mastocytoma P-815; experiment: Ascites tumor (Mastocytoma P-815) inhibition in BDF1 mice; type: in vivo; conditions: 0.5 mg/mouse/day × 6, intraperitoneal
# Experimental: Mice of BDF1 species (5 week old male, suppliers: Charles River and Shizuoka Laboratory Animal Center) were divided into four groups each containing three to six. Cancerized mast cells (Mastocytoma P-815) were implanted into the ascites of a mouse in an amount of 1×10^6 cells/mouse. From the next day, drug
# A: N-(2-ethylhexyl)-crotonamide,
# B: N-(2-ethylhexyl)-beta-methylcrotonamide, or
# C: N-(2-ethylhexyl)-beta-hydroxybutyramide
# was administered once a day by intra-peritoneal injection in an amount of 0.5 mg/mouse/day for 6 days, respectively. After 18 hours from the last administration, the mice were killed with ether for anesthesia. The entire ascitic cells were taken out with about 20 ml of phosphate buffered saline. Using the nigrosine staining method (0.01% nigrosine in Earl's balanced salt solution), the number of cells, particularly, live cells were counted by means of a Thomas leucocyte counting apparatus.
# For the above-described administration procedure was used 50 mg of the drug to which 25 mg of polyoxyethylene sorbitan monooleate (Tween 80) was added and the mixture was suspended in 5 ml of physiological salt solution and sterilized in an autoclave at 120° C. under 2 atm. for 15 minutes. The resulting sterile suspension was ready for administration.
# **Tumor inhibition ratio was calculated in terms of the following
# C : number of ascites cancer cells in the control group
# N : number of ascites cancer cells in the treated group
# [4] = Solubility; type: physicochemical; conditions: for solubility in organic solvents: organic solvents such as acetone
# [5] = tested on: cancerized mast cells (Mastocytoma P-815); experiment: Inhibition of growth of cancerized mast cells (Mastocytoma P-815) during 20 hours of cultivation; type: cell-based, mouse; conditions: 20 hour cultivation, 37° C., FIG. 5
# Experimental: 20 ml of a culture medium containing cancerized mast cells of a mouse (Mastocytoma P-815) at an inoculum cell concentration of 1.6×10^5 cells/ml in Fischer and Sartorelli's medium supplemented with 5% fetal calf serium were cultured in a 120 ml Erlenmeyer flask with or without drugs to be tested in an atmosphere of 5% CO2 and 95% air at 37° C. for 20 hours in a humidified incubator. Drugs, N-(2-ethylhexyl)-crotonamide, N-(2-ethylhexyl)-β-methylcrotonamide or N-(2-ethylhexyl)-β-hydroxybutyramide were added in different amounts to the initial culture medium. No drug was added to a control solution. After cultivation, the number of cells was counted.
# The results are shown in FIG. 5 wherein A corresponds to N-(2-ethylhexyl)-crotonamide, B corresponds to N-(2-ethylhexyl)-beta-methylcrotonamide, C corresponds to N-(2-ethylhexyl)-beta-hydroxybutyramide, D is the inoculum cell number, and E corresponds to the control. A, B, C and E are the cell numbers after 20 hour cultivation as described above.
# [6] = Acute toxicity test; conditions: in vivo, ip; ICR male mouse, intraperitoneal
# [7] = Shizuoka Laboratory Animal Center BDF1 mice
SMILES,carcinostatic activity [1],inhibition of DNA synthesis (in words) [2],3H-TdR incorporated (cpm) ([2]; 100 μg in 1 cc medium),3H-TdR incorporated (cpm) ([2]; 500 μg in 1 cc medium),inhibition at 100 µg/mL ([2]; 100 μg in 1 cc medium) [%],inhibition at 500 µg/mL ([2]; 500 μg in 1 cc medium) [%],Number of ascites cancer cells ([3]; Charles River BDF1 mice),Tumor inhibition ratio ([3]; Charles River BDF1 mice) [%],"Number of ascites cancer cells [3, 7]","Tumor inhibition ratio [3, 7] [%]",solubility in organic solvents [4],solubility in water [4],inhibition of division and growth of cancerized mast cells [5],LD50 [6] [mg/kg]
"C/C=C/C(=O)NCC(CC)CCCC (stereo not drawn) [Drug A, N-(2-ethylhexyl)-crotonamide]",high carcinostatic activity,effective in inhibiting DNA synthesis,400,75,90.1,98.1,1.5 ×10^8 /mouse,90.9,1.2 ×10^8 /mouse,87.6,soluble in organic solvents such as acetone,insoluble in water,more effective than N-(2-ethylhexyl)-β-hydroxybutyramide,540
"CCCCC(CC)CNC(=O)C=C(C)C (stereo not drawn) [Drug B, N-(2-ethylhexyl)-β-methylcrotonamide]",high carcinostatic activity,effective in inhibiting DNA synthesis,200,0,95.1,100,9.5 ×10^8 /mouse,42.1,4.0 ×10^8 /mouse,58.8,soluble in organic solvents such as acetone,insoluble in water,more effective than N-(2-ethylhexyl)-β-hydroxybutyramide,1400
"CCCCC(CC)CNC(=O)CC(C)O (stereo not drawn) [Drug C, N-(2-ethylhexyl)-β-hydroxybutyramide, reference compound]",,,2205,1200,45.6,70.4,6.0 ×10^8 /mouse,63.4,6.7 ×10^8 /mouse,30.9,,,,
